According to patent publication US10981902B2 (Merck Sharp & Dohme Corp., priority 2017, dated 2021):

The compounds below were run against T1, human M4 muscarinic acetylcholine receptor (Homo sapiens, UniProt P08173) (assay: human FLIPR-based M4 PAM assay (calcium mobilization, CHO-K1 cells with human M4 receptor and Gαqi5)). Details: inflection point (IP) of dose response curve, acetylcholine added at 20% of maximum response, read-out: M4 FLIPPR Hu IP.
T1 construct: expressed in transfected cells; host or cells: CHO-K1
T1 sequence (P08173 1-479): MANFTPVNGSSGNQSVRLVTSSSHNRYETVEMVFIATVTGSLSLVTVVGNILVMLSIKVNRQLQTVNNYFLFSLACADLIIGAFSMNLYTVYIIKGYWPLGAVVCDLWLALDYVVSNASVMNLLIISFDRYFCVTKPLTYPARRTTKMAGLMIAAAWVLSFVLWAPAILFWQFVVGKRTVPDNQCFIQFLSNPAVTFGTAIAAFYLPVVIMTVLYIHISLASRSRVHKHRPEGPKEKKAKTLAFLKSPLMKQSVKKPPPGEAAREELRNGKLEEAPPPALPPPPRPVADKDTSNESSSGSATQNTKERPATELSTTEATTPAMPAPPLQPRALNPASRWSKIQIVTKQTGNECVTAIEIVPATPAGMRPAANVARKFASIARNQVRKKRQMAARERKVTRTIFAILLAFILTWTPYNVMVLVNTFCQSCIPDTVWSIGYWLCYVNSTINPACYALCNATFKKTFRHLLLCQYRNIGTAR
Format: cell-based
Procedure: In a typical experiment the M4 muscarinic acetylcholine receptor modulating activity of the compounds of the present invention was determined in accordance with the following experimental method. CHO-K1 cells stably transfected with human M4 receptor and chimeric G-protein Gαqi5 (Coward P, et al., Analytical Biochemistry, 270:242-248 (1999)) are thawed from liquid N2 storage, resuspended in growth medium, plated in black, clear bottom 384 well plates, and incubated 16-20 hours at 37° C., 5% CO2. On the day of assay, growth medium is removed, the cells are washed 2 times with wash buffer, and cells are incubated in dye loading buffer at 37° C., 5% CO2 for ˜1 hour. Following dye loading the cell plates are placed in a FLIPR Tetra instrument and while monitoring dye fluorescence (excitation […]), 10 uL of test substance at increasing concentrations is added, and fluorescence values are recorded for 4 min. Next, 10 uL of acetylcholine is added (final concentration calculated so as to achieve 20% of the maximum acetycholine response), and the fluorescence reading is continued for 3.5 min. In some cases, a third addition of acetylcholine (final concentration calculated to achieve 70% of the maximal acetylcholine response) is performed. The resulting dose response curves are fit to a 4 parameter logistic equation and the final result is determined as the inflection point (IP) of the curve
CHO-K1 cells stably transfected with human M4 receptor and chimeric G-protein Gαqi5 are thawed from liquid N2 storage, resuspended in growth medium, plated in black, clear bottom 384 well plates, and incubated 16-20 hours at 37° C., 5% CO2.
On the day of assay, growth medium is removed, the cells are washed 2 times with wash buffer, and cells are incuabted in dye loading buffer at 37° C., 5% CO2 for ˜1 h. Following dye loading the cell plates are placed in a FLIPR Tetra instrument and while monitoring dye fluorescence ([…]), 10 uL of test substance at increasing concentrations is added, and fluorescence values are recorded for 4 min. Next, 10 uL of acetylcholine is added (final concentration calculated so as to achieve 20% of the maximum acetycholine response), and the fluorescence reading is continued for 3.5 min. In some cases, a third addition of acetylcholine (final concentration calculated to achieve 70% of the maximal acetylcholine response) is performed.
`CN1Cc2ncc(-c3nc(C(F)F)ccc3-c3cnc(CC(C)(C)C)o3)cc2C1=O` [Example 20, 3-(6-(difluoro-methyl)-3-(2-neopentyloxazol-5-yl)pyridin-2-yl)-6-methyl-6,7-dihydro-5H-pyrrolo[3,4-b]-pyridin-5-one] gave an EC50 of 0.163 µM. `CN1Cc2ncc(-c3nc(C#N)ccc3-c3cnc(CC(C)(C)C)o3)cc2C1=O` [Example 18, 6-(6-methyl-5-oxo-6,7-dihydro-5H-pyrrolo[3,4-b]-pyridin-3-yl)-5-(2-neopentyloxazol-5-yl)picolinonitrile] showed an EC50 of 0.15 µM. Work on `Cc1nc2cc(-c3nc(C#N)ccc3-c3cnc(CC(C)(C)C(F)(F)F)o3)ccn2n1` [Example 110, 6-(2-methyl-[1,2,4]triazolo [1,5-a]pyridin-7-yl)-5-(2-(3,3,3-trifluoro-2,2-dimethylpropyl)oxazol-5-yl)picolinonitrile] yielded an EC50 of 0.118 µM. For `Cc1cn2ccc(-c3nc(C#N)ccc3-c3cnc(CC4(O)CCCC4)o3)cc2n1` [Example 75, 5-(2-((1-hydroxycyclopentyl)methyl)oxazol-5-yl)-6-(2-methylimidazo [1,2-a]pyridin-7-yl) picolinonitrile], the EC50 was 0.23 µM. Compound `N#Cc1ccc(-c2cnc(CCC(F)(F)F)o2)c(-c2ccn3ccnc3c2)n1` [Example 67, 6-(imidazo[1,2-a]pyridin-7-yl)-5-(2-(3,3,3-trifluoropropyl)oxazol-5-yl)picolinonitrile] has an EC50 of 0.136 µM. In the case of `Cc1cn2ccc(-c3nc(C#N)ccc3-c3cnc(CC4(F)CC4)o3)cc2n1` [Example 100, 5-(2-((1-fluorocyclopropyl)methyl)oxazol-5-yl)-6-(2-methyl-imidazo[1,2-a]pyridin-7-yl)picolinonitrile], the EC50 is reported as 0.158 µM. `Cn1cnc2cc(-c3nc(C(F)F)ccc3-c3cnc(CC4CCCC4)o3)cnc21` [Example 49, 2-(cyclopentylmethyl)-5-(6-(difluoromethyl)-2-(3-methyl-3H-imidazo[4,5-b]pyridin-6-yl)pyridin-3-yl) oxazole] was tested, and the EC50 was 0.045 µM. `N#Cc1ccc(-c2cnc(CC3(F)CCC3)o2)c(-c2ccc3cccnc3c2)n1` [Example 73, 5-(2-((1-fluorocyclobutyl)methyl)oxazol-5-yl)-6-(quinolin-7-yl)picolinonitrile] was tested, and the EC50 was 0.065 µM. In the case of `Cn1cnc2cc(-c3ncccc3-c3cnc(CC(C)(C)C(F)(F)F)o3)ccc21` [Example 115, 5-(2-(1-methyl-1H-benzo[d]imidazol-5-yl)pyridin-3-yl)-2-(3,3,3-trifluoro-2,2-dimethylpropyl) oxazole], the EC50 is reported as 0.128 µM. `CN1Cc2ncc(-c3nc4c(cc3-c3cnc(CC5CCCC5)o3)CCC4)cc2C1=O` [Example 53, 3-(3-(2-(cyclopentylmethyl)oxazol-5-yl)-6,7-dihydro-5H-cyclopenta[b]pyridin-2-yl)-6-methyl-6,7-dihydro-5H-pyrrolo[3,4-b] pyridin-5-one] was tested, and the EC50 was 0.153 µM. In the case of `Cc1cn2ccc(-c3nc(C#N)ccc3-c3cnc(CC4CC(F)(F)C4)o3)cc2n1` [Example 98, 5-(2-((3,3-difluorocyclobutyl)methyl)oxazol-5-yl)-6-(2-methylimidazo[1,2-a]pyridin-7-yl)picolinonitrile], the EC50 is reported as 0.036 µM. With `CC(C)(Cc1ncc(-c2ccc(C#N)nc2-c2ccc3cccnc3c2)o1)C(F)(F)F` [Example 23, 6-(quinolin-7-yl)-5-(2-(3,3,3-trifluoro-2,2-dimethylpropyl)-oxazol-5-yl)picolino-nitrile] the EC50 was 0.104 µM. Compound `CC(CCc1ncc(-c2ccc(C#N)nc2-c2ccn3ccnc3c2)o1)C(F)(F)F` (centres unmarked) [Example 40, 6-(imidazo[1,2-a]-pyridin-7-yl)-5-(2-(4,4,4-trifluoro-3-methylbutyl)oxazol-5-yl)picolinonitrile] has an EC50 of 0.046 µM. `CC(C)(Cc1ncc(-c2ccc(C#N)nc2-c2ccn3ccnc3c2)o1)C(F)(F)F` [Example 28, 6-(imidazo[1,2-a]-pyridin-7-yl)-5-(2-(3,3,3-trifluoro-2,2-dimethylpropyl)-oxazol-5-yl)picolino-nitrile] showed an EC50 of 0.122 µM. In the case of `Cc1cn2ccc(-c3nc(C#N)ccc3-c3cnc(CCC(F)(F)F)o3)cc2n1` [Example 107, 6-(2-methylimidazo[1,2-a]pyridin-7-yl)-5-(2-(3,3,3-trifluoropropyl)oxazol-5-yl)picolinonitrile], the EC50 is reported as 0.096 µM. `N#Cc1ccc(-c2cnc(CC3CCCC3)o2)c(N2CCn3ccnc3C2)n1` [Example 58, 5-(2-(cyclopentylmethyl)oxazol-5-yl)-6-(5,6-dihydroimidazo[1,2-a]pyrazin-7(8H)-yl) picolinonitrile] was tested, and the EC50 was 0.017 µM. Compound `Cc1nc2cc(-c3nc(C#N)ccc3-c3cnc(CC(C)(C)C(F)(F)F)o3)ccc2n1C` [Example 111, 6-(1,2-dimethyl-1H-benzo[d]imidazol-5-yl)-5-(2-(3,3,3-trifluoro-2,2-dimethylpropyl)oxazol-5-yl)picolinonitrile] has an EC50 of 0.114 µM. Work on `Cc1ccc(-c2cnc(CC3CCCC3)o2)c(-c2ccc3c(c2)C(=O)N(C)C3)n1` [Example 46, 6-(3-(2-(cyclopentylmethyl)oxazol-5-yl)-6-methylpyridin-2-yl)-2-methylisoindolin-1-one] yielded an EC50 of 0.013 µM. For `Cc1nc2cc(-c3nc(C#N)ccc3-c3cnc(CCC(C)(F)F)o3)ccn2n1` [Example 112, 5-(2-(3,3-difluorobutyl)oxazol-5-yl)-6-(2-methyl-[1,2,4]triazolo [1,5-a]pyridin-7-yl)picolinonitrile], the EC50 was 0.182 µM. Compound `Cc1ccc(-c2cnc(Cc3ccc(F)cc3)o2)c(N2CCn3ccnc3C2)n1` [Example 59, 5-(2-(5,6-dihydroimidazo[1,2-a]pyrazin-7(8H)-yl)-6-methylpyridin-3-yl)-2-(4-fluorobenzyl)oxazole] has an EC50 of 0.459 µM. In the case of `N#Cc1ccc(-c2cnc(CC3(F)CCCC3)o2)c(-c2ccn3ccnc3c2)n1` [Example 76, 5-(2-((1-fluorocyclopentyl)methyl)oxazol-5-yl)-6-(imidazo [1,2-a]pyridin-7-yl) picolinonitrile], the EC50 is reported as 0.015 µM. Work on `CC(Cc1ncc(-c2ccc(C#N)nc2-c2ccc3cccnc3c2)o1)C(C)(C)F` (centres unmarked) [Example 83, 5-(2-(3-fluoro-2,3-dimethylbutyl)oxazol-5-yl)-6-(quinolin-7-yl) picolinonitrile] yielded an EC50 of 0.068 µM. `N#Cc1ccc(-c2cnc(C[C@@H]3CC[C@H](F)C3)o2)c(-c2ccc3cccnc3c2)n1` [Example 101, 5-(2-(((1S,3S)-3-fluorocyclopentyl)methyl)oxazol-5-yl)-6-(quinolin-7-yl)picolinonitrile] gave an EC50 of 0.025 µM. `CCC(C)(F)Cc1ncc(-c2ccc(C#N)nc2-c2ccn3cc(C)nc3c2)o1` (centres unmarked) [Example 90, 5-(2-(2-fluoro-2-methylbutyl)oxazol-5-yl)-6-(2-methylimidazo [1,2-a]pyridin-7-yl)picolinonitrile] gave an EC50 of 0.031 µM. In the case of `COc1cc2ccc(-c3nc(C)ccc3-c3cnc(CC4CCCC4)o3)cc2nn1` [Example 2, 2-(cyclopentyl-methyl)-5-(2-(3-methoxycinnolin-7-yl)-6-methyl-pyridin-3-yl)-oxazole], the EC50 is reported as 0.013 µM. With `COCc1cn2ccc(-c3nc(C#N)ccc3-c3cnc(CC4CC4)o3)cc2n1` [Example 93, 5-(2-(cyclopropylmethyl)oxazol-5-yl)-6-(2-(methoxymethyl)imidazo[1,2-a]pyridin-7-yl)picolinonitrile] the EC50 was 0.137 µM. `CC(C)CCc1ncc(-c2ccc(C#N)nc2-c2ccc3cccnc3c2)o1` [Example 31, 5-(2-isopentyloxazol-5-yl)-6-(quinolin-7-yl)picolinonitrile] gave an EC50 of 0.043 µM. Compound `CC1(Cc2ncc(-c3cc4c(nc3-c3ccc5ccc(F)nc5c3)C(=O)CC4)o2)CCCC1` [Example 43, 2-(2-fluoroquinolin-7-yl)-3-(2-((1-methylcyclopentyl)methyl)oxazol-5-yl)-5,6-dihydro-7H-cyclopenta[b]pyridin-7-one] has an EC50 of 0.043 µM. Work on `Cc1nnc2cc(-c3nc(C#N)ccc3-c3cnc(CC(C)(C)C)o3)ccn12` [Example 35, 6-(3-methyl-[1,2,4]-triazolo[4,3-a]pyridin-7-yl)-5-(2-neopentyl-oxazol-5-yl)picolino-nitrile] yielded an EC50 of 0.13 µM.
